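A five-concentration, 48-hour dose response in 96-well plates underlies each endpoint, interpolated linearly between surrounding concentrations. Abbreviation: GI50, concentration required for 50% inhibition of growth.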 Activity calls are given as the source filed them. No stated cut-off is given here; in the data, active = GI50 up to about 1.1 µM and inactive = higher.
Tests used:
Assay in all cases: NCI-60 cell line screen, 48 h
SF-295 = tested on: SF-295
TK-10 = tested on: TK-10
RXF 393 = tested on: RXF 393
PC-3 = tested on: PC-3
SK-MEL-5 = tested on: SK-MEL-5
SW-620 = tested on: SW-620
OVCAR-5 = tested on: OVCAR-5
COLO 205 = tested on: COLO 205
LOX IMVI = tested on: LOX IMVI
MCF7 = tested on: MCF7
A549 = tested on: A549
KM12 = tested on: KM12
786-0 = tested on: 786-0
NCI/ADR-RES = tested on: NCI/ADR-RES
RPMI-8226 = tested on: RPMI-8226
MDA-MB-435 = tested on: MDA-MB-435
SF-539 = tested on: SF-539
BT-549 = tested on: BT-549
T47D = tested on: T47D
IGROV-1 = tested on: IGROV-1
CAKI-1 = tested on: CAKI-1
OVCAR-4 = tested on: OVCAR-4
SNB-19 = tested on: SNB-19
SNB-75 = tested on: SNB-75
OVCAR-8 = tested on: OVCAR-8
HL-60 = tested on: HL-60
UO-31 = tested on: UO-31
M14 = tested on: M14
NCI-H460 = tested on: NCI-H460
UACC-257 = tested on: UACC-257
OVCAR-3 = tested on: OVCAR-3
U-251 = tested on: U-251
HOP-92 = tested on: HOP-92
SK-OV-3 = tested on: SK-OV-3
DU-145 = tested on: DU-145
UACC-62 = tested on: UACC-62
Malme-3M = tested on: Malme-3M
HT-29 = tested on: HT-29
HCT-116 = tested on: HCT-116
Hs-578T = tested on: Hs-578T
HCT-15 = tested on: HCT-15
HOP-62 = tested on: HOP-62
MDA-MB-231 = tested on: MDA-MB-231
ACHN = tested on: ACHN
NCI-H23 = tested on: NCI-H23
SF-268 = tested on: SF-268
NCI-H226 = tested on: NCI-H226
MDA-N = tested on: MDA-N
NCI-H522 = tested on: NCI-H522
A498 = tested on: A498
SK-MEL-2 = tested on: SK-MEL-2
HCC 2998 = tested on: HCC 2998
MOLT-4 = tested on: MOLT-4
EKVX = tested on: EKVX
K562 = tested on: K562
SN12C = tested on: SN12C
SK-MEL-28 = tested on: SK-MEL-28
CCRF-CEM = tested on: CCRF-CEM
SR = tested on: SR

`COc1cc([C@@H]2c3cc4c(cc3[C@H](OC3OC5COC(c6ccco6)OC5C(O)C3O)C3COC(=O)[C@@H]32)OCO4)cc(OC)c1OC` (stereo not given in full) was tested, and the GI50 (SF-295) was 3.67 µM (inactive), the GI50 (TK-10) was > 100 µM (inactive) and the GI50 (RXF 393) was 2.82 µM (inactive). For the same compound, the GI50 (PC-3) was 3.48 µM (inactive), the GI50 (SK-MEL-5) was 4.21 µM (inactive) and the GI50 (SW-620) was 3.5 µM (inactive). The GI50 (OVCAR-5) was 7.66 µM (inactive), the GI50 (COLO 205) was 4.06 µM (inactive) and the GI50 (LOX IMVI) was 4.06 µM (inactive). For the same compound, the GI50 (MCF7) was 3.85 µM (inactive), the GI50 (A549) was 3.79 µM (inactive) and the GI50 (KM12) was 4.48 µM (inactive). The GI50 (786-0) was 3.3 µM (inactive), the GI50 (NCI/ADR-RES) was 9.93 µM (inactive) and the GI50 (RPMI-8226) was 7.01 µM (inactive). For the same compound, the GI50 (MDA-MB-435) was 3.59 µM (inactive), the GI50 (SF-539) was 2.74 µM (inactive) and the GI50 (BT-549) was 3.21 µM (inactive). The GI50 (T47D) was 13.4 µM (inactive), the GI50 (IGROV-1) was 3.56 µM (inactive) and the GI50 (CAKI-1) was 5.35 µM (inactive). For the same compound, the GI50 (OVCAR-4) was 41.6 µM (inactive), the GI50 (SNB-19) was 3.9 µM (inactive) and the GI50 (SNB-75) was > 100 µM (inactive). The GI50 (OVCAR-8) was 14.2 µM (inactive), the GI50 (HL-60) was 4.05 µM (inactive) and the GI50 (UO-31) was 25.9 µM (inactive). For the same compound, the GI50 (M14) was 4.44 µM (inactive), the GI50 (NCI-H460) was 2.16 µM (inactive) and the GI50 (UACC-257) was 5.24 µM (inactive). For the same compound, the GI50 (OVCAR-3) was 3.21 µM (inactive), the GI50 (U-251) was 3.18 µM (inactive) and the GI50 (HOP-92) was 9.93 µM (inactive). For the same compound, the GI50 (SK-OV-3) was > 19.9 µM (inactive), the GI50 (DU-145) was 3.15 µM (inactive) and the GI50 (UACC-62) was 4.73 µM (inactive). For the same compound, the GI50 (Malme-3M) was 22.3 µM (inactive), the GI50 (HT-29) was 2.8 µM (inactive) and the GI50 (HCT-116) was 3.27 µM (inactive). For the same compound, the GI50 (Hs-578T) was 5.01 µM (inactive), the GI50 (HCT-15) was 3.2 µM and the GI50 (HOP-62) was 7.89 µM (inactive). For the same compound, the GI50 (MDA-MB-231) was 4.43 µM (inactive), the GI50 (ACHN) was 4.6 µM (inactive) and the GI50 (NCI-H23) was 3.56 µM (inactive). The GI50 (SF-268) was 8.2 µM (inactive), the GI50 (NCI-H226) was 4.17 µM (inactive) and the GI50 (MDA-N) was 2.04 µM (inactive). For the same compound, the GI50 (NCI-H522) was 8.34 µM (inactive), the GI50 (A498) was 2.29 µM (inactive) and the GI50 (SK-MEL-2) was 9.31 µM (inactive). The GI50 (HCC 2998) was 4 µM (inactive).
For `CC(C)=NNc1snnc1C(N)=O`, the GI50 (SF-295) was > 100 µM (inactive), the GI50 (TK-10) was > 100 µM (inactive) and the GI50 (RXF 393) was > 100 µM (inactive). The GI50 (PC-3) was > 100 µM (inactive), the GI50 (SK-MEL-5) was > 100 µM (inactive) and the GI50 (SW-620) was > 10 µM (inactive). For the same compound, the GI50 (OVCAR-5) was > 100 µM (inactive), the GI50 (COLO 205) was > 100 µM (inactive) and the GI50 (LOX IMVI) was > 100 µM (inactive). The GI50 (MCF7) was > 100 µM (inactive), the GI50 (A549) was > 100 µM (inactive) and the GI50 (MOLT-4) was > 100 µM (inactive). For the same compound, the GI50 (KM12) was > 100 µM (inactive), the GI50 (786-0) was > 100 µM (inactive) and the GI50 (NCI/ADR-RES) was > 100 µM (inactive). The GI50 (RPMI-8226) was > 100 µM (inactive), the GI50 (MDA-MB-435) was > 100 µM (inactive) and the GI50 (SF-539) was > 100 µM (inactive). The GI50 (BT-549) was > 100 µM (inactive), the GI50 (T47D) was > 100 µM (inactive) and the GI50 (IGROV-1) was > 100 µM (inactive). The GI50 (CAKI-1) was > 100 µM (inactive), the GI50 (SNB-19) was > 100 µM (inactive) and the GI50 (EKVX) was > 100 µM (inactive). For the same compound, the GI50 (SNB-75) was > 100 µM (inactive), the GI50 (OVCAR-8) was > 100 µM (inactive) and the GI50 (HL-60) was > 100 µM (inactive). The GI50 (UO-31) was > 100 µM (inactive), the GI50 (K562) was > 100 µM (inactive) and the GI50 (M14) was > 100 µM (inactive). For the same compound, the GI50 (UACC-257) was > 100 µM (inactive), the GI50 (OVCAR-3) was > 100 µM (inactive) and the GI50 (U-251) was > 100 µM (inactive). The GI50 (SK-OV-3) was > 100 µM (inactive), the GI50 (DU-145) was > 100 µM (inactive) and the GI50 (UACC-62) was > 100 µM (inactive). The GI50 (SN12C) was > 100 µM (inactive), the GI50 (Malme-3M) was > 100 µM (inactive) and the GI50 (HT-29) was > 100 µM (inactive). The GI50 (HCT-116) was > 100 µM (inactive), the GI50 (Hs-578T) was > 100 µM (inactive) and the GI50 (SK-MEL-28) was > 100 µM (inactive). For the same compound, the GI50 (CCRF-CEM) was > 100 µM (inactive), the GI50 (HOP-62) was > 100 µM (inactive) and the GI50 (MDA-MB-231) was > 100 µM (inactive). For the same compound, the GI50 (ACHN) was > 100 µM (inactive), the GI50 (NCI-H23) was > 100 µM (inactive) and the GI50 (SF-268) was > 100 µM (inactive). The GI50 (NCI-H226) was > 100 µM (inactive), the GI50 (MDA-N) was > 100 µM (inactive) and the GI50 (NCI-H522) was > 100 µM (inactive). The GI50 (A498) was > 100 µM (inactive), the GI50 (SK-MEL-2) was > 100 µM (inactive) and the GI50 (HCC 2998) was > 100 µM (inactive).
`COc1ccc(/C=C/c2nsc(/C=C/c3ccc(OC)cc3)n2)cc1` was tested, and the GI50 (SF-295) was > 100 µM (inactive), the GI50 (TK-10) was > 100 µM (inactive) and the GI50 (RXF 393) was > 100 µM (inactive). For the same compound, the GI50 (PC-3) was 48.5 µM (inactive), the GI50 (SK-MEL-5) was > 100 µM (inactive) and the GI50 (OVCAR-5) was > 100 µM (inactive). The GI50 (COLO 205) was > 100 µM (inactive), the GI50 (LOX IMVI) was 55.1 µM (inactive) and the GI50 (MCF7) was > 100 µM (inactive). The GI50 (A549) was > 100 µM (inactive), the GI50 (MOLT-4) was 33 µM (inactive) and the GI50 (KM12) was > 100 µM (inactive). For the same compound, the GI50 (786-0) was 21.8 µM (inactive), the GI50 (NCI/ADR-RES) was > 100 µM (inactive) and the GI50 (RPMI-8226) was 28.7 µM (inactive). The GI50 (MDA-MB-435) was 85.1 µM (inactive), the GI50 (SF-539) was > 100 µM (inactive) and the GI50 (BT-549) was > 100 µM (inactive). The GI50 (T47D) was 38 µM (inactive), the GI50 (IGROV-1) was > 100 µM (inactive) and the GI50 (CAKI-1) was > 100 µM (inactive). The GI50 (OVCAR-4) was > 100 µM (inactive), the GI50 (SNB-19) was > 100 µM (inactive) and the GI50 (EKVX) was > 100 µM (inactive). The GI50 (SNB-75) was > 100 µM (inactive), the GI50 (OVCAR-8) was > 100 µM (inactive) and the GI50 (HL-60) was 24.8 µM (inactive). The GI50 (UO-31) was > 100 µM (inactive), the GI50 (K562) was 33.3 µM (inactive) and the GI50 (M14) was > 100 µM (inactive). For the same compound, the GI50 (NCI-H460) was 24.9 µM (inactive), the GI50 (UACC-257) was 41.4 µM (inactive) and the GI50 (OVCAR-3) was > 100 µM (inactive). The GI50 (U-251) was 44.7 µM (inactive), the GI50 (HOP-92) was > 100 µM (inactive) and the GI50 (SK-OV-3) was > 100 µM (inactive). The GI50 (DU-145) was > 100 µM (inactive), the GI50 (SR) was 27.3 µM (inactive) and the GI50 (Malme-3M) was > 100 µM (inactive). The GI50 (HT-29) was 36.5 µM (inactive), the GI50 (HCT-116) was > 100 µM (inactive) and the GI50 (Hs-578T) was > 100 µM (inactive). The GI50 (HCT-15) was 52.1 µM, the GI50 (SK-MEL-28) was > 100 µM (inactive) and the GI50 (CCRF-CEM) was 19.3 µM (inactive). The GI50 (HOP-62) was > 100 µM (inactive), the GI50 (MDA-MB-231) was > 100 µM (inactive) and the GI50 (ACHN) was > 100 µM (inactive). The GI50 (SF-268) was > 100 µM (inactive), the GI50 (NCI-H226) was > 100 µM (inactive) and the GI50 (MDA-N) was > 100 µM (inactive). The GI50 (NCI-H522) was 39.6 µM (inactive), the GI50 (A498) was > 100 µM (inactive) and the GI50 (SK-MEL-2) was > 100 µM (inactive).
